Here are results for one compound from patent publication EP0083600B1, “Use of alkaloid derivatives for the manufacture of a medicament for the strengthening of the immune system and for the treatment of viral, bacterial and fungal infections” (Nowicky, Wassyl, priority 1981, dated 1983).

The data set in a line: Biological test of toxicity (lethal dose). Format: in vivo. The note with it: biologischer Test. How it is done: Weiterhin ließ sich nachweisen, daß in dem Präparat Ukrain (hier erfolgte die Umsetzung der Alkaloide von Chelidonium majus L. mit Thiophosphorsäuretriaziridid, gen. Thio-TEPA) keine freien Äthylengruppen des Thio-TEPA vorliegen. Dieser Nachweis wurde erbracht: • 1. durch eine chemische Analyse und • 2. dadurch, daß beim biologischen Test die Dosis letalis für Thio-TEPA bei 1 mg/kg Körpergewicht liegt, für das Präparat jedoch eine Dosis von 250 mg/kg Körpergewicht nicht toxisch ist.

On to `S=P(N1CC1)(N1CC1)N1CC1` [Thio-TEPA, Thiophosphorsäuretriaziridid], for which the Dosis letalis worked out at 1 mg/kg Körpergewicht.
